# In patent EP0007294A2, “Membrane stabilizing compounds having beta-receptor blocking activity, their preparation, method for treatment of arrhythmic conditions, and pharmaceutical preparations containing same” (priority 1978, dated 1980):
# Where two headings read alike, the source gives them in different places.
# Experiments:
# [1] = test system: ouabain-induced arrhythmias; assay: Ouabain-induced arrhythmias in anesthetized guinea-pigs; assay type: in vivo; settings: for A-A EFFECT IN NUMBER OF ANIMALS: animals with antiarrhythmic effect / animals tested; for LOWEST FREQUENCY: frequency of ventricular premature beats after test solution; for ASYSTOLE: time of asystole under continued ouabain; for V-FIB: time of ventricular fibrillation under continued ouabain
# Protocol: Guinea-pigs of either.sex (300-400 g) were anesthetized with urethane 1,4 g/kg i.p. and tracheotomized. ECG, lead II was picked up with needle electrodes and was registered continuously throughout the experiment. Two i.v. catheters were inserted: one for the administration of ouabain, the other for the test solution.
# The experimental design for the study of antiarrhythmic activities is schematically shown in the head of Table 2. The arrhythmia was induced by automatic infusion of ouabain, 18 µg/kg/60" every two minutes for twelve minutes and thereafter 9 µg/kg/30" every two minutes throughout the whole experiment and the infusion was not stopped until asystole occurred. As soon as the frequency of ventricular premature beats (VPB) had passed 50 per cent, the test solution was given i.v. (0,2 ml/min) during 2 min. (see head of Table 2).
# [2] = test system: chloroform-induced ventricular arrhythmias; assay: Chloroform-induced ventricular arrhythmias (fibrillation) in mice, intraperitoneal dose
# Text: Mice were given an intraperitoneal dose of the test compound. Twenty minutes after dose, they were suffocated in chloroform vapor.- When the animals stopped breathing, the chest was opened to inspect for fibrillation. If the heart was not fibrillating, it was prodded.
# Signs of CNS toxicity were noted during the 20-minute interval between dosing and challenge.
# "Protected" means number of animals protected against CHC13- induced ventricular fibrillation.
# [3] = Conscious dogs with ligation of a coronary artery according to Harris: ectopics and convulsions; assay type: in vivo; settings: in vivo
# Text: (§1) Male beagle dogs, 7-13 kg, undergo two days prior to the test a surgical ligation of a coronary artery. On the day of the test the conscious dog is secured in a canvas sling in a standing position and given increasing doses of the test compounds by intravenous administration. ECG, blood pressure etc are monitored and attention is paid to all CNS-effects. The dogs have almost 100 percent of ectopics prior to administration of the compound to be tested. Effects of the test drug on the frequency of ectopics are calculated from ECG. The accumulative end doses giving 50% and 90% reduction of ectopics as well as the ED50 values which give convulsions (side-effect) are measured and given below in Table 3. The value for convulsions is a mean value for 3-5 dogs.
# (§2) x) The value given is the final value in a series of doses 0.5 + 1 + 2 + 4 + 8 mg/kg i.v. giving 50% reduction of ectopics. 30 min interval between doses.
# (§3) Table 3: Antiarrythmic effect and CNS-effects of four β-receptor blockers, a membrane stabilizer, and ten new compounds with combined β-blocking and membrane stabilizing effect.
# [4] = test system: ectopics; assay: as above; assay type: in vivo; settings: for ED50 / ED90: Canis lupus familiaris; for ED50: read-out: Conscious dog Harris ligation Ectopics -50%; for ED90: read-out: Conscious dog Harris ligation Ectopics -90%
# Text: as §1, §2, §3
# [5] = Alternative chloroform test on mice: ventricular tachycardia inhibition and ataxia; assay type: in vivo; settings: mouse, in vivo
# Protocol: (§4) In an alternative chloroform test on mice the ventricular tachycardia inhibition by the test compounds are observed. Thereby the test solution is given subcutaneous and the animal is observed for CNS-effects for 20 min. The mouse is put into a chamber with chloroform until it stops breathing (approx 30 sec.). The animal is then secured on a cork-board and ECG is monitored. If the ventricular rythm is less than 520 beats per min., the animal was protected against ventricular tachycardia. Groups of 10 animals were tested for each dose-level'and the ED50-values have been calculated therefrom. During the test the side-effect ataxia (incordination of movements) is observed.
# (§5) In Table 5, as shown, the new compounds tested exerted antiarrhythmic effects also in this te-st.
# [6] = test system: chloroform induced ventricular tachy-cardia; assay: as above; assay type: in vivo; settings: for ED50: Mus musculus
# Protocol: as §4, §5
# [7] = iv., accumulative end dose giving 50% reduction of ectopics
# [8] = iv., accumulative end dose giving 90% reduction of ectopics
# [9] = sc., mice, chloroform, groups of 10 animals per dose-level
Compound,"ED50 [4, 7] [mg/kg]","ED90 [4, 8] [mg/kg]","ED50 [6, 9] [mg/kg]","TD50 ([3]; dog, iv) [mg/kg]",TD50 at 20 min ([5]; sc) [mg/kg],other results
COCCc1ccc(OCC(O)CNCCc2ccccc2)c(Br)c1 (stereo not drawn) [EX 3],–,–,–,–,–,A-A EFFECT IN NUMBER OF ANIMALS ([1]; dose 0.3 mg/kg i.v.): 5/6; A-A EFFECT IN NUMBER OF ANIMALS ([1]; dose 1.0 mg/kg i.v.): 6/6; LOWEST FREQUENCY ([1]; dose 0.3 mg/kg i.v.): 26±7%; LOWEST FREQUENCY ([1]; dose 1.0 mg/kg i.v.): 13±7%; ASYSTOLE ([1]; dose 0.3 mg/kg i.v.): 34 ± 1 min; ASYSTOLE ([1]; dose 1.0 mg/kg i.v.): 41 ± 2 min; V-FIB ([1]; dose 0.3 mg/kg i.v.): 27 ± 1 min; V-FIB ([1]; dose 1.0 mg/kg i.v.): 35 ± 2 min
COC(=O)NCCc1ccc(OCC(O)CNC(C)C)cc1 (stereo not drawn) [Pamatolol],–,–,–,–,–,"Number of Animals Dead ([2]; dose 100 mg/kg intraperitoneal, 10 treated): 0; Number of Animals Protected ([2]; dose 100 mg/kg intraperitoneal, 10 treated, protected against CHCl3-induced ventricular fibrillation): 5; Number of Animals Convulsive ([2]; mouse, in vivo, ip, 100 mg/kg): 0; Number of Animals LRR ([2]; mouse, in vivo, ip, 100 mg/kg): 0"
"COCCc1ccc(OCC(O)CNCCOc2ccccc2)cc1 (stereo not drawn) [Ex. 13, 3-[2-phenoxyethylamino]-1-[4-(2-methoxyethyl)phenoxy]-propanol--2]",4,4,3,–,–,"TD50 ([3]; iv., conscious dog, mean value for 3-5 dogs, read-out: ED50 Convulsive): 8 mg/kg; TD50 at 20 min ([5]; sc., mice, observed for 20 min, read-out: Ataxia ED50): > 12 mg/kg"
"COCCc1ccc(OCC(O)CNCCc2ccccc2)cc1 (stereo not drawn) [Ex. 14, 3-(2-phenethylamino)-1-[4-(2-methoxyethyl)phenoxy]-propanol-2]",–,–,–,–,–,"ED50 Convulsive ([4]; dog, in vivo, iv): 6 to 8 mg/kg; Conscious dog Harris ligation Ectopics -50% [4, 7]: 1 mg/kg; Conscious dog Harris ligation Ectopics -90% [4, 8]: 2 mg/kg; Ataxia ED50 ([6]; mouse, in vivo, sc, 20 min): 40 mg/kg; Ventricular tachy-cardia inhibition ED50 [6, 9]: 10 mg/kg"
"COCCc1ccc(OCC(O)CNCc2ccccc2)cc1 (stereo not drawn) [Ex. 9, 3-phenylmethylamino-1-[4-(2-methoxyethyl)phenoxy]-propanol-2]",2,4,35,8,60,–
"COCc1ccc(OCC(O)CNCc2ccccc2)cc1 (stereo not drawn) [Ex. 6, 3-phenylmethylamino-1-[4-methoxymgthylphenoxy]-propanol-2]",8,> 16,~200,14,~70,–
COCCc1ccc(OCC(O)CNCCCCc2ccc(OC)c(OC)c2)cc1 (stereo not drawn) [Ex. 15],1,4,1.2,6,> 6.3,–
"COCc1ccc(OCC(O)CNCCCCc2ccccc2)cc1 (stereo not drawn) [Ex. 8, 3-[4-phenylbutylamino)-1-(4-methoxymethylphenoxy)-propanol-2]",4,> 8,–,8,–,–
"Cc1cccc(C)c1NC(=O)C(C)N (stereo not drawn) [Tocainide, reference compound]",4,8,90,> 8,130,–
